Consider seven compounds from patent US20080132505A1 (Glaxo Group Limited, priority 2004, published 2008).

Series [1] has as its target human cannabinoid CB2 receptor (Homo sapiens, UniProt P34972). Briefly: Cannabinoid CB2 receptor agonist activity (yeast reporter assay, FDGlu fluorescence). The series is classed as cell-based. The conditions noted are these: for EC50: EC50 value at the cloned human cannabinoid CB2 receptor; for Emax: read-out: efficacy value (Emax relative to HU210) at the cloned human cannabinoid CB2 receptor. In outline:
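Agonist-driven growth was read as fluorescein fluorescence (ex 485, em 535 nm) from FDGlu cleavage after 24 h at 30 °C, using yeast strain MMY23 carrying human CB2 and chimeric Gpa1/Gαi3. Medium had 10 mM 3-aminotriazole, pH 7.0; four-parameter fits gave EC50, with Emax and EMR versus HU210.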
In general terms: In a reporter assay the amount or activity of a reporter protein is the signal.

A short description of series [2]: Particle size analysis (Lecotrac laser particle size analyser) pre and post nanomilling. The series is classed as physicochemical. Here is the method: 2.5 g of compound of example 176 was weighed into a 10 ml centrifuge tube. 25 ml of 0.3 mm yttrium zirconium (YTZ) ceramic milling beads (Manufacturer: Tosob, Japan; Supplier: Glen Creston Ltd., batch no. 5280130030)”) was weighed into a 50 ml milling pot. 22.5 ml of aqueous 1.5% HPMC was measured with a measuring cylinder into a 100 ml beaker. This solution was homogenised for 3 seconds with an Ultra Turrax T25 homogeniser. Approximately 200 mg of the 2.5 g of the compound was added to the HPMC solution and homogenised at the lowest speed setting until the powder was wetted. This was repeated until all the compound had been added. The speed of the homogeniser was then increased to maximum and the suspension was homogenised for a further 3 minutes. This suspension was allowed to stand for 30 minutes in order to allow some of the foam to disperse. The suspension was then poured into the 50 ml pot containing the YTZ milling beads, stirring to release any trapped air. The lid to the pot was then fitted and the pot sealed with some Nesco film. This procedure was repeated for a second 50 ml nanomilling pot and both pots were placed on a Retsch mill and milled for a total of 8 hours.
The milling pots were removed from the Retsch mill and left to cool and for the foam to disperse overnight. In the morning the suspension and bead mixture was passed through a 200μ, 40 mm diameter screen. The contents from each 50 ml pot was washed with aqueous 1.5% HPMC: 10% of the original suspension volume (i.e. 2.5 ml). The suspension from the 2 pots was combined to make 1 batch. The suspension obtained from the method above was named the concentrate.
A particle size analysis was carried out on the Lecotrac laser particle size analyser. The results are shown in Table B along with the results from the starting material for comparison:
Compounds of Examples 19, 34, 194, 217, 228, 247 were nanomilled on a 1 g scale using the process described above and the particle size analysed pre and post nanomilling.

Where [3] appears, read: Table C, after nanomilling, 1 g scale.
[4] abbreviates: Table C, before nanomilling, 1 g scale.
The mark [5] stands for this setting: Table B, after 8 hours milling in aqueous 1.5% HPMC, 2.5 g per pot.
The mark [6] stands for this setting: Table B, starting material before nanomilling, Lecotrac laser particle size analyser.

human cannabinoid CB2 receptor, sequence (P34972 whole entry): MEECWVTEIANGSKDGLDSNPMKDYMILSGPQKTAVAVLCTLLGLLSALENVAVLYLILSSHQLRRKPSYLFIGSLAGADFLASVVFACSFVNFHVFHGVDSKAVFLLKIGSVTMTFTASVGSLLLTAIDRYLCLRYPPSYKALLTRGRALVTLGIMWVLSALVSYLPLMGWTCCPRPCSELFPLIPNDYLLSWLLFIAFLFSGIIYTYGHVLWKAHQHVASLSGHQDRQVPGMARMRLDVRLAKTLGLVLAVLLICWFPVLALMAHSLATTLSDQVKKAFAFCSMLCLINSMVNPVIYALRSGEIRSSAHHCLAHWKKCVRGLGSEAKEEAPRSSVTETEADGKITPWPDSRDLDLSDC

As usually defined, the EC50 is the concentration at which the effect is half-maximal. Low values mean an effect from little substance, high ones a need for much substance. In general, Emax refers to the size of the effect at its maximum, as opposed to the concentration needed. `O=C(NCC1CCC1)c1cnc(Nc2ccc(F)c(Cl)c2)nc1C(F)(F)F` [Example 194, 2-(3-Chloro-4-fluorophenylamino)-4-trifluoromethyl-pyrimidine-5-carboxylic acid cyclobutylmethyl-amide]: in series [1], the half-maximal effective concentration (EC50) was in the range of 0.02 to 0.3 µM and the Emax is more than 50%. In addition, in series [2] (setting [3]), the “Post-nanomilling 50% percentile” value came out at 0.56 μ and the “Post-nanomilling 95% percentile” value worked out at 1.97 μ. For the same compound, in series [2] (setting [4]), the “Pre-nanomilling 50% percentile” value amounted to 6.78 μ and the “Pre-nanomilling 95% percentile” value came out at 33.7 μ.
On to `N#Cc1ccc(Nc2ncc(C(=O)NCC3CCOCC3)c(C(F)(F)F)n2)cc1Cl` [Example 217, 2-(4-Cyano-3-chloro-phenylamino)-4-trifluoromethyl-pyrimidine-5-carboxylic acid (tetrahydro-pyran-4-ylmethyl)-amide], for which, in series [1], the EC50 is 0.02 to 0.3 µM and the Emax was more than 50%. Besides, in series [2] (setting [3]), the “Post-nanomilling 50% percentile” value worked out at 0.34 μ and the “Post-nanomilling 95% percentile” value was found to be 1.30 μ. In series [2] (setting [4]), the “Pre-nanomilling 50% percentile” value is reported as 5.70 μ and the “Pre-nanomilling 95% percentile” value turned out to be 34.9 μ.
In the case of `N#Cc1ccc(Nc2ncc(C(=O)NCC3CCCC3)c(C(F)(F)F)n2)cc1` [Example 176, 2-(4-Cyanophenylamino)-4-trifluoromethyl-pyrimidine-5-carboxylic acid cyclopentylmethyl-amide], in series [1], the EC50 is 0.02 to 0.3 µM and the Emax is more than 50%. In series [2] (setting [5]), the “Post-nanomilling 50% percentile” value is 0.33 μ and the “Post-nanomilling 95% percentile” value came out at 1.78 μ. For the same compound, in series [2] (setting [6]), the “Pre-nanomilling 50% percentile” value came out at 13.15 μ and the “Pre-nanomilling 95% percentile” value worked out at 68.7 μ.
As for `O=C(NCC1CCOCC1)c1cnc(Nc2ccc(Cl)cc2Cl)nc1C(F)(F)F` [Example 34, 2-(2,4-Dichlorophenylamino)-4-trifluoromethylpyrimidine-5-carboxylic acid (tetrahydropyran-4-ylmethyl)-amide], in series [1], the EC50 is 0.02 to 0.3 µM and the Emax was more than 50%. For the same compound, in series [2] (setting [3]), the “Post-nanomilling 50% percentile” value is listed as 0.18 μ and the “Post-nanomilling 95% percentile” value was 0.56 μ. In addition, in series [2] (setting [4]), the “Pre-nanomilling 50% percentile” value came to 10.46 μ and the “Pre-nanomilling 95% percentile” value was determined as 32.7 μ.
As to `O=C(NCC1CCCC1)c1cnc(Nc2ccc(F)c(Cl)c2)nc1C(F)(F)F` [Example 247, 2-(3-Chloro-4-fluoro-phenylamino)-4-trifluoromethyl-pyrimidine-5-carboxylic acid cyclopentylmethyl-amide], in series [1], the EC50 was 0.02 to 0.3 µM and the maximum response (Emax) was more than 50%. In addition, in series [2] (setting [3]), the “Post-nanomilling 50% percentile” value is 0.64 μ and the “Post-nanomilling 95% percentile” value is recorded as 2.53 μ. Besides, in series [2] (setting [4]), the “Pre-nanomilling 50% percentile” value is 13.2 μ and the “Pre-nanomilling 95% percentile” value is reported as 68.7 μ.
For `O=C(NCC1CCC1)c1cnc(Nc2ccc(Cl)cc2F)nc1C(F)(F)F` [Example 228, 2-(2-Fluoro-4-chloro-phenylamino)-4-trifluoromethyl-pyrimidine-5-carboxylic acid cyclobutylmethyl-amide], in series [1], the EC50 lay in the range of 0.02 to 0.3 µM and the Emax was more than 50%. In series [2] (setting [3]), the “Post-nanomilling 50% percentile” value stood at 0.44 μ and the “Post-nanomilling 95% percentile” value came to 1.69 μ. Besides, in series [2] (setting [4]), the “Pre-nanomilling 50% percentile” value came to 4.65 μ and the “Pre-nanomilling 95% percentile” value amounted to 47.1 μ.
With `O=C(NCC1CCCCC1)c1cnc(Nc2cccc(F)c2)nc1C(F)(F)F` [Example 19, 2-(3-Fluorophenylamino)-4-trifluoromethylpyrimidine-5-carboxylic acid cyclohexylmethyl-amide], in series [1], the EC50 lay within 0.02 to 0.3 µM and the maximal response (Emax) is more than 50%. For the same compound, in series [2] (setting [3]), the “Post-nanomilling 50% percentile” value is listed as 0.40 μ and the “Post-nanomilling 95% percentile” value was determined as 1.40 μ. In series [2] (setting [4]), the “Pre-nanomilling 50% percentile” value turned out to be 5.22 μ and the “Pre-nanomilling 95% percentile” value was 25.5 μ.
